Assays:
[1] = molecular target: T1, Recombinant Src enzyme (Homo sapiens, UniProt P12931); assay: Src HTRF assay; type: biochemical
T1 construct: purchased Millipore 14-326; host or cells: Sf21 insect cells
Method in brief: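 Run as for the FAK HTRF assay (same buffer, supplements, compound preparation and procedure), with dasatinib included. Reaction contained 0.5 μM biotin-tagged Tyk2 synthetic peptide, 5 nM Src made in Sf21 cells, and a pH7.4-buffer-prepared component at 10 μM final.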

[2] = molecular target: T2, FAK phosphorylated at Y397 in HEK-FAK cell line overexpressing human FL FAK protein (Homo sapiens, UniProt Q05397); assay: Cell based assay, Phospho-FAK ELISA; conditions: HEK stb; read-out: pFAK EC50 (μM) HEK stb
T2 construct: expressed in transfected cells
T2 sequence (Q05397 whole entry): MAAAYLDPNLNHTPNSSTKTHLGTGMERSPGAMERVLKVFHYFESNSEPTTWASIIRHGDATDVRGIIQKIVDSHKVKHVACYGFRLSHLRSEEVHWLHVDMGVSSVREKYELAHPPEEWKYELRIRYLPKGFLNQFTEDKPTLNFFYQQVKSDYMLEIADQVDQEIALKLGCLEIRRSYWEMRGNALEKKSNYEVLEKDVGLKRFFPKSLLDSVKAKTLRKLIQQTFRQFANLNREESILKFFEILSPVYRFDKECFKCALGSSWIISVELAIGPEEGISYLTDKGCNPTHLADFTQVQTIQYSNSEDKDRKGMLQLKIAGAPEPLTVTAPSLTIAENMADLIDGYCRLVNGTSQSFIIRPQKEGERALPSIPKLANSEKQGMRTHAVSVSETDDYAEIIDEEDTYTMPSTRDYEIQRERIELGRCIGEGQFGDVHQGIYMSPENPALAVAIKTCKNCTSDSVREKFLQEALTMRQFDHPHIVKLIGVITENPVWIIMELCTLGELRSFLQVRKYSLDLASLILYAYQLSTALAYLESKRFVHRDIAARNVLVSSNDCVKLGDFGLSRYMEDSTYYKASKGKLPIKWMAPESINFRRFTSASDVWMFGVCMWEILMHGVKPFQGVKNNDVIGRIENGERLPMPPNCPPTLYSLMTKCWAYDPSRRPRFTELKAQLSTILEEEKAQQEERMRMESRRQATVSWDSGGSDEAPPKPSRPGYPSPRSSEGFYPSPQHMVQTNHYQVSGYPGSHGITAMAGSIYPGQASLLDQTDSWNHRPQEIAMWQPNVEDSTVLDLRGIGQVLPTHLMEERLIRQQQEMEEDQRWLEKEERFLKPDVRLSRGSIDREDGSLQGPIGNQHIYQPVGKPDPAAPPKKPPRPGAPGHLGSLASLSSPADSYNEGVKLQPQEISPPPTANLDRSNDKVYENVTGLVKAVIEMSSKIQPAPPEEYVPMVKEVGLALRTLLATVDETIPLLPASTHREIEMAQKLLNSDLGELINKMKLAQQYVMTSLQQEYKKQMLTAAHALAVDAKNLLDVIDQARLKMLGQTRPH
Method in brief: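 Stable HEK293 line overexpressing full-length human FAK, kept under 0.8 mg/mL Zeocin. In lysates, FAK Y397 autophosphorylation was measured by sandwich ELISA: total-FAK capture antibody, biotinylated pY397-specific detection antibody, streptavidin-HRP with TMB substrate.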

[3] = molecular target: T3, AURKB (Aurora B) enzyme (Homo sapiens, UniProt Q96GD4); assay: Aurora B HTRF assay; type: biochemical; conditions: read-out: AuroraB IC50
T3 construct: purchased Invitrogen PVR 130
T3 sequence (Q96GD4 whole entry): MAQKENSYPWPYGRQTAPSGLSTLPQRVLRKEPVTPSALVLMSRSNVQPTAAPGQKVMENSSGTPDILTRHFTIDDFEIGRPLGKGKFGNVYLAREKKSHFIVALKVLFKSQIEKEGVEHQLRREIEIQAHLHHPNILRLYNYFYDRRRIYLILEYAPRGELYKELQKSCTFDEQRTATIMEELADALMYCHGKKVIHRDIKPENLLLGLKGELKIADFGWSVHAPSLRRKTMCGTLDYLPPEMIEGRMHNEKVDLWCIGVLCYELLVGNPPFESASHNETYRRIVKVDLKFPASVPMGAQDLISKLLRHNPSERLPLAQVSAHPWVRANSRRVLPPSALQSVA
Method in brief: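 Enzyme (5 nM final) and ULight-labelled PLK Ser137 peptide (50 nM) reacted 1 h at room temperature; a 30 μM final component was also present. Detection used EDTA-containing buffer with europium anti-phospho-PLK(Ser137) antibody at 2 nM, 1 h, then time-resolved FRET readout.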

[4] = molecular target: JAK2 (Homo sapiens, UniProt O60674); assay: JAK2 biochemical potency; conditions: read-out: JAK2 HTRF IC50
Sequence of JAK2 (O60674 whole entry, species assumed): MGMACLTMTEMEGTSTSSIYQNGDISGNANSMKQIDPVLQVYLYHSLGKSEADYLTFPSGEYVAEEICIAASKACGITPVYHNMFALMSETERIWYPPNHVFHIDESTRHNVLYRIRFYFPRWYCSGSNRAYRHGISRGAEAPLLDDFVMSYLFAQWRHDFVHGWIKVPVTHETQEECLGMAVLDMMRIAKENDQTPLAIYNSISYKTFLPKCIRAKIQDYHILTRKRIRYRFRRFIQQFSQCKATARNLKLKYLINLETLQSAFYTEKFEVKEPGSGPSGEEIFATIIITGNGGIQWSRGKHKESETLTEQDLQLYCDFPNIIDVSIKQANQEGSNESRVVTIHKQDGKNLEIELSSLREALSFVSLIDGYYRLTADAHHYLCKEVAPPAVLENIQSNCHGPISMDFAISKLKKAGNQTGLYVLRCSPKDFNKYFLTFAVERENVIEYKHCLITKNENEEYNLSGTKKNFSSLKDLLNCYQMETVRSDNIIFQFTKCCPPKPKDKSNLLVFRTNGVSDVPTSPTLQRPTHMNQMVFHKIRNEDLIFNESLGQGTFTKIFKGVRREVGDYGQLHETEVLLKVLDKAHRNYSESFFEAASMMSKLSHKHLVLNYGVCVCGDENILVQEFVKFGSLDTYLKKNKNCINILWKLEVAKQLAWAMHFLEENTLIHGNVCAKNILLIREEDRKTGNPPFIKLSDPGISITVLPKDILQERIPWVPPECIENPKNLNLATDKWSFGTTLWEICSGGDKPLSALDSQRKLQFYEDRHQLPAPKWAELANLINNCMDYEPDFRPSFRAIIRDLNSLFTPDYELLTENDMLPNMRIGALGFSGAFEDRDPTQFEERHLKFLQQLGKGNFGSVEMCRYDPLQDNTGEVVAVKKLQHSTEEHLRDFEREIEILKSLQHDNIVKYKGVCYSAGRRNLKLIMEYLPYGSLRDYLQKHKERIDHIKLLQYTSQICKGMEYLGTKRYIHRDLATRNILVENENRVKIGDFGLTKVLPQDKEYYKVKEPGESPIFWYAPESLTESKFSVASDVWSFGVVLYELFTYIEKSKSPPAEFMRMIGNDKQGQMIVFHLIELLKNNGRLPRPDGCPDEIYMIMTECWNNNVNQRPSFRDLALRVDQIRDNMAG

T1 sequence (P12931 whole entry): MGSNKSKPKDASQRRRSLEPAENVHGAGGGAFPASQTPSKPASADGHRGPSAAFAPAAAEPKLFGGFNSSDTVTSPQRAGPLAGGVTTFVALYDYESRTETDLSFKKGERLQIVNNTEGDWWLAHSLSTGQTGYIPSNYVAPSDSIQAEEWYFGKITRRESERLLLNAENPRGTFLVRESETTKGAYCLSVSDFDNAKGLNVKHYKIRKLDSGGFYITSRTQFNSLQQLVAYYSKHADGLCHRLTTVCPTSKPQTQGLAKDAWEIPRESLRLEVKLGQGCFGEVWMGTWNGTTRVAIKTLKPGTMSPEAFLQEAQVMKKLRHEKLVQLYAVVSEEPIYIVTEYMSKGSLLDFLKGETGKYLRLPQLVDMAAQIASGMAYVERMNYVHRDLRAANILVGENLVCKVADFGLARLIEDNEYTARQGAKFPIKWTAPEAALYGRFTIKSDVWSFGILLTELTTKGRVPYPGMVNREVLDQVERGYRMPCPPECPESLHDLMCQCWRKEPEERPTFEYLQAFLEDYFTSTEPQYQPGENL

O=C1CCc2cc(Nc3ncc4ccn(Cc5cccnc5N5CCCS5(=O)=O)c4n3)ccc2N1 [Example 216]
IC50 [1]: < 20 nM
EC50 [2]: > 1 µM
IC50 [3]: < 20 nM

O=C1CCc2cc(Nc3ncc4cnn(Cc5ccccc5OC(F)F)c4n3)ccc2N1 [Example 21]
IC50 [1]: < 20 nM
IC50 [4]: < 20 nM
EC50 [2]: > 1 µM

FC(F)Oc1ccccc1Cn1ccc2cnc(Nc3ccc4ncsc4c3)nc21 [Example 36]
IC50 [4]: < 20 nM
EC50 [2]: > 1 µM
IC50 [3]: > 1000 nM

O=S(=O)(c1cccc2nsnc12)n1ccc2cnc(Nc3ccc(N4CCNCC4)cc3)nc21 [Example 253]
IC50 [4]: < 20 nM
EC50 [2]: > 1 µM
IC50 [3]: < 20 nM

O=C1CCc2cc(Nc3ncc4ccn(S(=O)(=O)c5cccc6cccnc56)c4n3)ccc2N1 [Example 169]
IC50 [1]: < 20 nM
IC50 [3]: < 20 nM

Cc1cc(Nc2ncc3cnn(S(=O)(=O)c4cccc5cccnc45)c3n2)ccc1N1CCNCC1 [Example 332]
IC50 [1]: < 20 nM
EC50 [2]: < 0.02 µM
IC50 [3]: < 20 nM

Cn1cc(Nc2ncc3ccn(S(=O)(=O)c4cccc5cccnc45)c3n2)cn1 [Example 318]
EC50 [2]: > 1 µM
IC50 [3]: < 20 nM

CC(=O)Nc1cccc(Nc2cc3c(cn2)cnn3Cc2ccccc2OC(F)F)c1 [Example 64]
EC50 [2]: > 1 µM
IC50 [3]: > 1000 nM

COc1cc(N2CCNCC2)ccc1Nc1cc2c(ccn2S(=O)(=O)c2cccc3cccnc23)cn1 [Example 330, N-(2-Methoxy-4-(piperazin-1-yl)phenyl)-1-(quinolin-8-ylsulfonyl)-1H-pyrrolo[3,2-c]pyridin-6-amine]
IC50 [1]: > 1000 nM
IC50 [4]: > 1000 nM
EC50 [2]: < 0.02 µM
IC50 [3]: < 20 nM

CN(c1ncccc1Cn1ccc2cnc(Nc3ccc(NCCO)cc3)nc21)S(C)(=O)=O [Example 201]
IC50 [4]: < 20 nM
EC50 [2]: > 1 µM
IC50 [3]: < 20 nM

CN(c1ncccc1Cn1ncc2cnc(Nc3ccc4[nH]c(=O)[nH]c4c3)cc21)S(C)(=O)=O [Example 142]
IC50 [1]: > 1000 nM
EC50 [2]: > 1 µM

CN(c1ncccc1Cn1ccc2cnc(Nc3ccc(N4CCCC4CO)cc3)nc21)S(C)(=O)=O (centres unmarked) [Example 536]
EC50 [2]: > 1 µM

COc1ccccc1S(=O)(=O)n1ncc2cnc(Nc3ccc(N4CCNCC4)cc3)nc21 [Example 335]
EC50 [2]: > 1 µM
IC50 [3]: < 20 nM

FC(F)Oc1ccccc1Cn1ncc2cnc(Nc3ccc4ncsc4c3)cc21 [Example 82]
EC50 [2]: > 1 µM
IC50 [3]: > 1000 nM

CN(c1ncccc1Cn1ncc2cnc(Nc3ccc4c(c3)CCC(=O)N4)nc21)S(C)(=O)=O [Example 202]
IC50 [1]: < 20 nM
IC50 [4]: < 20 nM
EC50 [2]: > 1 µM

Reference: patent US20160222014A1, “COMPOUNDS FOR REGULATING FAK AND/OR SRC PATHWAYS” (ASANA BIOSCIENCES, LLC, priority 2013, published 2016)
